Data: ChEMBL document CHEMBL3046027, “In vitro and in vivo antifungal activity of synthetic pure isothiocyanates against Sclerotinia sclerotiorum” (Pest Manag Sci, 2011)

Tests used:
Sclerotinia sclerotiorum [1] = test: In vivo antifungal Sclerotinia sclerotiorum in Pepper (Capsicum annuum L. cv. Sera Demre) assessed as inhibition of mycelial growth in volatile phase at 168 umol/L measured after 10 to 14 weeks; assay type: functional
Sclerotinia sclerotiorum [2] = test: In vivo antifungal Sclerotinia sclerotiorum in Pepper (Capsicum annuum L. cv. Sera Demre) assessed as inhibition of mycelial growth in volatile phase at 84 umol/L measured after 10 to 14 weeks; assay type: functional
Sclerotinia sclerotiorum [3] = test: Antifungal activity against Sclerotinia sclerotiorum assessed as inhibition of mycelial growth in contact phase at 2531 umol/l measured at 20 degC after 5 days; assay type: functional; conditions: 120 h, read-out: GI
Sclerotinia sclerotiorum [4] = test: Antifungal activity against Sclerotinia sclerotiorum assessed as inhibition of mycelial growth in contact phase at 1688 umol/l measured at 20 degC after 5 days; assay type: functional; conditions: 120 h, read-out: GI
Sclerotinia sclerotiorum [5] = test: Antifungal activity against Sclerotinia sclerotiorum assessed as inhibition of mycelial growth in contact phase at 844 umol/l measured at 20 degC after 5 days; assay type: functional; conditions: 120 h, read-out: GI
Sclerotinia sclerotiorum [6] = test: Antifungal activity against Sclerotinia sclerotiorum assessed as inhibition of mycelial growth in contact phase at 759 umol/l measured at 20 degC after 5 days; assay type: functional; conditions: 120 h, read-out: GI
Sclerotinia sclerotiorum [7] = test: Antifungal activity against Sclerotinia sclerotiorum assessed as inhibition of mycelial growth in contact phase at 591 umol/l measured at 20 degC after 5 days; assay type: functional; conditions: 120 h, read-out: GI
Sclerotinia sclerotiorum [8] = test: Fungistatic activity in Sclerotinia sclerotiorum assessed as inhibition of carpogenic germination in volatile phase at 840 umol/l measured at 20 degC after 5 days relative to control; assay type: functional; conditions: 120 h
Sclerotinia sclerotiorum [9] = test: Fungistatic activity in Sclerotinia sclerotiorum assessed as inhibition of carpogenic germination in volatile phase at 422 umol/l measured at 20 degC after 5 days relative to control; assay type: functional; conditions: 120 h
Sclerotinia sclerotiorum [10] = test: Fungistatic activity in Sclerotinia sclerotiorum assessed as inhibition of carpogenic germination in volatile phase at 84 umol/l measured at 20 degC after 5 days relative to control; assay type: functional; conditions: AT84, 120 h
Sclerotinia sclerotiorum [11] = test: Fungistatic activity in Sclerotinia sclerotiorum assessed as inhibition of carpogenic germination in volatile phase at 42 umol/l measured at 20 degC after 5 days relative to control; assay type: functional; conditions: 120 h
Sclerotinia sclerotiorum [12] = test: Fungistatic activity in Sclerotinia sclerotiorum assessed as sclerotial viability measured at 20 degC after 5 days; assay type: functional, organism-based; conditions: 120 h
Sclerotinia sclerotiorum [13] = test: Fungistatic activity in Sclerotinia sclerotiorum assessed as inhibition of mycelial growth in volatile phase measured at 20 degC after 5 days; assay type: functional, organism-based; conditions: 120 h
Sclerotinia sclerotiorum [14] = test: Fungistatic activity in Sclerotinia sclerotiorum assessed as inhibition of mycelial growth in contact phase measured at 20 degC after 5 days; assay type: functional, organism-based; conditions: 120 h
Sclerotinia sclerotiorum [15] = test: Fungistatic activity in Sclerotinia sclerotiorum assessed as viability in volatile phase at 844 umol/l measured at 20 degC after 5 days relative to control; assay type: functional; conditions: 120 h, read-out: GI
Sclerotinia sclerotiorum [16] = test: Fungitoxic activity in Sclerotinia sclerotiorum assessed as inhibition of mycelial growth in contact phase at 2531 umol/l measured at 20 degC after 5 days relative to control; assay type: functional; conditions: 120 h, read-out: GI
Sclerotinia sclerotiorum [17] = test: Antifungal activity against Sclerotinia sclerotiorum assessed as inhibition of mycelial growth in volatile phase at 840 umol/l measured at 20 degC after 5 days; assay type: functional; conditions: 120 h, read-out: GI
Sclerotinia sclerotiorum [18] = test: Antifungal activity against Sclerotinia sclerotiorum assessed as inhibition of mycelial growth in volatile phase at 588 umol/l measured at 20 degC after 5 days; assay type: functional; conditions: 120 h, read-out: GI
Sclerotinia sclerotiorum [19] = test: Antifungal activity against Sclerotinia sclerotiorum assessed as inhibition of mycelial growth in volatile phase at 422 umol/l measured at 20 degC after 5 days; assay type: functional; conditions: 120 h, read-out: GI
Sclerotinia sclerotiorum [20] = test: Antifungal activity against Sclerotinia sclerotiorum assessed as inhibition of mycelial growth in volatile phase at 84 umol/l measured at 20 degC after 5 days; assay type: functional; conditions: 120 h, read-out: GI
Sclerotinia sclerotiorum [21] = test: Antifungal activity against Sclerotinia sclerotiorum assessed as inhibition of mycelial growth in volatile phase at 42 umol/l measured at 20 degC after 5 days; assay type: functional; conditions: 120 h, read-out: GI
Sclerotinia sclerotiorum [22] = test: Fungistatic activity in Sclerotinia sclerotiorum assessed as inhibition of mycelial growth in contact phase at 1688 umol/l measured at 20 degC after 5 days relative to control; assay type: functional; conditions: 120 h, read-out: GI
Sclerotinia sclerotiorum [23] = test: Antifungal activity against Sclerotinia sclerotiorum assessed as inhibition of germination in volatile phase at 844 umol/l measured at 20 degC after 5 days; assay type: functional; conditions: 120 h
Sclerotinia sclerotiorum [24] = test: Antifungal activity against Sclerotinia sclerotiorum assessed as inhibition of germination in volatile phase at 422 umol/l measured at 20 degC after 5 days; assay type: functional; conditions: 120 h
Sclerotinia sclerotiorum [25] = test: Antifungal activity against Sclerotinia sclerotiorum assessed as inhibition of germination in volatile phase at 253 umol/l measured at 20 degC after 5 days; assay type: functional; conditions: 120 h
Sclerotinia sclerotiorum [26] = test: Antifungal activity against Sclerotinia sclerotiorum assessed as inhibition of germination in volatile phase at 84 umol/l measured at 20 degC after 5 days; assay type: functional; conditions: AT84, 120 h
Sclerotinia sclerotiorum [27] = test: Antifungal activity against Sclerotinia sclerotiorum assessed as inhibition of germination in volatile phase at 42 umol/l measured at 20 degC after 5 days; assay type: functional; conditions: 120 h
Sclerotinia sclerotiorum [28] = test: Fungistatic activity in Sclerotinia sclerotiorum assessed as inhibition of mycelial growth in volatile phase at 588 umol/l measured at 20 degC after 5 days relative to control; assay type: functional; conditions: 120 h, read-out: GI

`CCCCN=C=S` [BUTYL ISOTHIOCYANATE] was tested, and the inhibition in vivo at 168 µM (Sclerotinia sclerotiorum [1]) was 63.3%, the inhibition in vivo at 84 µM (Sclerotinia sclerotiorum [2]) was 31.7% and the inhibition of growth at 2531 µM (Sclerotinia sclerotiorum [3]) was 100%. It also gave an inhibition of growth at 1688 µM (Sclerotinia sclerotiorum [4]) of 100%, an inhibition of growth at 844 µM (Sclerotinia sclerotiorum [5]) of 29.2% and an inhibition of growth at 759 µM (Sclerotinia sclerotiorum [6]) of 11.7%. The inhibition of growth at 591 µM (Sclerotinia sclerotiorum [7]) was 5%, the inhibition at 840 µM (Sclerotinia sclerotiorum [8]) was 92.5% and the inhibition at 422 µM (Sclerotinia sclerotiorum [9]) was 82.5%. For the same molecule, the inhibition at 84 µM (Sclerotinia sclerotiorum [10]) was 80%, the inhibition at 42 µM (Sclerotinia sclerotiorum [11]) was 77.5% and the EC50 (Sclerotinia sclerotiorum [12]) was 403 µM. For the same molecule, the EC50 (Sclerotinia sclerotiorum [13]) was 87.3 µM, the EC50 (Sclerotinia sclerotiorum [14]) was 932 µM and the inhibition of growth at 844 µM (Sclerotinia sclerotiorum [15]) was 100%. For the same molecule, the inhibition of growth at 2531 µM (Sclerotinia sclerotiorum [16]) was 100%, the inhibition of growth at 840 µM (Sclerotinia sclerotiorum [17]) was 100% and the inhibition of growth at 588 µM (Sclerotinia sclerotiorum [18]) was 72.3%. It also gave an inhibition of growth at 422 µM (Sclerotinia sclerotiorum [19]) of 70.3%, an inhibition of growth at 84 µM (Sclerotinia sclerotiorum [20]) of 48.7% and an inhibition of growth at 42 µM (Sclerotinia sclerotiorum [21]) of 22.8%. It also gave an inhibition of growth at 1688 µM (Sclerotinia sclerotiorum [22]) of 100%, an inhibition at 844 µM (Sclerotinia sclerotiorum [23]) of 100% and an inhibition at 422 µM (Sclerotinia sclerotiorum [24]) of 46.7%. For the same molecule, the inhibition at 253 µM (Sclerotinia sclerotiorum [25]) was 13.3%, the inhibition at 84 µM (Sclerotinia sclerotiorum [26]) was 0% and the inhibition at 42 µM (Sclerotinia sclerotiorum [27]) was 0%. It also gave an inhibition of growth at 588 µM (Sclerotinia sclerotiorum [28]) of 100%.
